Experimental data published in ChEMBL document CHEMBL3272312, “Proteinase inhibitors. I. Inhibitors of elastase” (J Med Chem, 1977).
≈ marks a conversion by molar mass, not a printed value. Calls of active or inactive are those of the source. The calls are words filed in the database; no cut-off is given here. *1 amine or outer side, *2 acyl side, *3 side chain or, on linkers, in order; H or OH if unused. Where a SMILES comes first, the peptide text is derived from it. [ ]: non-standard residue; d: D form. AzaAla = CN(N[*:1])C(=O)[*:2]; Lac = C[C@H](O)C(=O)O

What was measured:
[1] = molecular target: T1, Pancreatic elastase (Sus scrofa) (UniProt P08419+P00772); assay: Activity at porcine pancreatic elastase assessed as compound hydrolysis at 1 mg incubated at room temperature up to 24 hrs by TLC analysis; type: protein assay
[2] = molecular target: T1, Pancreatic elastase (Sus scrofa); assay: Inhibition of porcine pancreatic elastase assessed as Ac-Ala-Ala-Pro-Ala-p-nitroanilide conversion to p-nitroaniline by spectrophotometric analysis; type: protein assay
[3] = molecular target: T1, Pancreatic elastase (Sus scrofa); assay: Reversible inhibition of porcine pancreatic elastase assessed as enzyme recovery by sephadex G-25 rapid passage assay; type: protein assay
Pancreatic elastase = Pancreatic elastase (Sus scrofa, UniProt P08419+P00772); assay: Noncompetitive inhibition of porcine pancreatic elastase using Ac-Ala-Ala-Pro-Ala-p-nitroanilide as substrate by Dixon plot analysis; type: protein assay
[4] = molecular target: T1, Pancreatic elastase (Sus scrofa); assay: Reversible inhibition of porcine pancreatic elastase assessed as enzyme recovery; type: protein assay
[5] = molecular target: T2, Neutrophil elastase (Homo sapiens) (UniProt P08246)
T2 sequence (whole entry): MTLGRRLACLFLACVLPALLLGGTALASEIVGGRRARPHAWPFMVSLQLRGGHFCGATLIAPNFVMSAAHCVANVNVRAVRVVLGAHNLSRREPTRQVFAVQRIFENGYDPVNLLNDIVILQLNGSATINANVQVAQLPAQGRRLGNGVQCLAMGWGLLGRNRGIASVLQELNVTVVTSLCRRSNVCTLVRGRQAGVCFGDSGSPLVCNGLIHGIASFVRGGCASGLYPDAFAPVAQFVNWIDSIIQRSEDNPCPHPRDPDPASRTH
Description: Inhibition of human granulocyte elastase assessed as Ac-Ala-Ala-Pro-Ala-p-nitroanilide conversion to p-nitroaniline by spectrophotometric analysis

[6] = molecular target: T1, Pancreatic elastase (Sus scrofa); assay: Activity at porcine pancreatic elastase assessed as compound hydrolysis at 1 mg incubated at room temperature after 5 mins by TLC analysis; type: protein assay

SMILES	ID50 [2] [µg/mL]	further results
CCOC(=O)[C@H](C)OC(=O)N(C)NC(=O)[C@@H]1CCCN1C(=O)[C@H](C)NC(=O)[C@H](C)NC(C)=O	1 (≈ 2.12 µM)	Activity [1]: inactive
CCOC(=O)[C@H](Cc1ccccc1)OC(=O)N(C)NC(=O)[C@@H]1CCCN1C(=O)[C@H](C)NC(=O)[C@H](C)NC(C)=O	2 (≈ 3.65 µM)	–
CC(=O)N[C@@H](C)C(=O)N[C@@H](C)C(=O)N1CCC[C@H]1C(=O)NN(C)C(=O)O[C@@H](C)C(=O)OCc1ccccc1	0.5 (≈ 0.937 µM)	–
CCOC(=O)[C@H](C)OC(=O)[C@H](C)OC(=O)[C@@H]1CCCN1C(=O)[C@H](C)NC(=O)[C@H](C)NC(C)=O (Ac-AAP[Lac][Lac]-OEt)	33 (≈ 70 µM)	–
CCOC(=O)[C@H](C)OC(=O)N(C)NC(=O)[C@H](C)NC(C)=O	–	inhibition [2]: inactive
CC(=O)N1CCC[C@H]1C(=O)N[C@@H](C)C(=O)N1CCC[C@H]1C(=O)NN(C)C(=O)OC(C)C(N)=O (mixture of isomers)	0.3	Activity [1]: inactive; inhibition [3]: Active; Ki (Pancreatic elastase): 4.5 ×10⁻⁷ M; inhibition [4]: inactive
CCOC(=O)[C@H](C)NC(=O)N(C)NC(=O)[C@@H]1CCCN1C(=O)[C@H](C)NC(=O)[C@H](C)NC(C)=O (Ac-AAP[AzaAla]A-OEt)	100 (≈ 213 µM)	–
CCOC(=O)N(C)NC(=O)[C@@H]1CCCN1C(=O)[C@H](C)NC(=O)[C@H](C)NC(=O)OCc1ccccc1	30 (≈ 61 µM)	–
CCOC(=O)[C@H](C)OC(=O)N(C)NC(C)=O	–	inhibition [2]: inactive
CCOC(=O)[C@H](C)OC(=O)N(C)NC(=O)[C@H](CC(C)C)NC(=O)[C@H](C)NC(=O)[C@@H]1CCCN1C(C)=O	15 (≈ 29.2 µM)	–
CNC(=O)[C@H](C)OC(=O)N(C)NC(=O)[C@@H]1CCCN1C(=O)[C@H](C)NC(=O)[C@H](C)NC(C)=O	0.4 (≈ 0.876 µM)	Ki (Pancreatic elastase): 6.5 ×10⁻⁷ M
CCOC(=O)NNC(=O)[C@@H]1CCCN1C(=O)[C@H](C)NC(=O)[C@H](C)NC(=O)OC(C)(C)C	–	inhibition [2]: inactive
CCOC(=O)[C@H](C)OC(=O)[C@H](C)OC(=O)N(C)NC(=O)[C@@H]1CCCN1C(=O)[C@H](C)NC(=O)[C@@H]1CCCN1C(C)=O	1.5 (≈ 2.63 µM)	–
CCOC(=O)N(C)NC(=O)[C@@H]1CCCN1C(=O)[C@H](C)NC(=O)[C@H](C)NC(=O)OC(C)(C)C	90 (≈ 197 µM)	–
CC(=O)N[C@@H](C)C(=O)N[C@@H](C)C(=O)N1CCC[C@H]1C(=O)NN(C)C(=O)O[C@@H](C)C(=O)N(C)N	2 (≈ 4.24 µM)	ID50 [5]: 50 µg/mL (≈ 106 µM)
CCOC(=O)NNC(=O)[C@@H]1CCCN1C(=O)[C@H](C)NC(=O)[C@H](C)NC(C)=O	–	inhibition [2]: inactive
CCOC(=O)C(C)OC(=O)N(C)NC(=O)[C@@H]1CCCN1C(=O)[C@H](C)NC(=O)[C@@H]1CCCN1C(C)=O (stereo partly drawn)	4.5 (≈ 9.04 µM)	–
CC(=O)N[C@@H](C)C(=O)N[C@@H](C)C(=O)N1CCC[C@H]1C(=O)NN(C)C(=O)O[C@@H](C)C(=O)O	110 (≈ 248 µM)	–

SMILES	ID50 [2] [µg/mL]	further results
CC(=O)N[C@@H](C)C(=O)N[C@@H](C)C(=O)N1CCC[C@H]1C(=O)NN(C)C(=O)O[C@@H](C)C(N)=O	0.4 (≈ 0.904 µM)	Ki (Pancreatic elastase): 5 ×10⁻⁷ M
CCOC(=O)N(C)NC(=O)[C@@H]1CCCN1C(=O)[C@H](C)NC(=O)[C@H](C)NC(C)=O	20 (≈ 50.1 µM)	–
CC(=O)N[C@@H](C)C(=O)N[C@@H](C)C(=O)N1CCC[C@H]1C(=O)NN(C)C(=O)O[C@@H](C)C(=O)NN	0.25 (≈ 0.546 µM)	Ki (Pancreatic elastase): 6.5 ×10⁻⁷ M
CC(=O)N[C@@H](C)C(=O)N[C@@H](C)C(=O)N1CCC[C@H]1C(=O)NN(C)C(=O)O[C@@H](C)C(=O)NCc1ccccc1	0.3 (≈ 0.563 µM)	Ki (Pancreatic elastase): 8.5 ×10⁻⁷ M
CCOC(=O)NNC(=O)[C@@H]1CCCN1C(=O)[C@H](C)NC(=O)[C@@H]1CCCN1C(C)=O	–	inhibition [2]: inactive
CCOC(=O)N(C)NC(=O)[C@@H]1CCCN1C(=O)[C@H](C)NC(=O)[C@@H]1CCCN1C(C)=O	60 (≈ 141 µM)	–
CCOC(=O)[C@H](C)OC(=O)[C@H](C)OC(=O)N(C)NC(=O)[C@@H]1CCCN1C(=O)[C@H](C)NC(=O)[C@H](C)NC(C)=O	1.5 (≈ 2.76 µM)	–
CCOC(=O)N(C)NC(=O)[C@H](C)NC(C)=O	–	inhibition [2]: inactive
CCOC(=O)[C@H](C)OC(=O)N(C)NC(=O)[C@@H]1CCCN1C(=O)[C@H](C)NC(=O)[C@@H]1CCCN1C(C)=O	6 (≈ 12.1 µM)	–
CCOC(=O)[C@H](C)NC(=O)N(C)NC(=O)[C@@H]1CCCN1C(=O)[C@H](C)NC(=O)[C@@H]1CCCN1C(C)=O (Ac-PAP[AzaAla]A-OEt)	–	inhibition [2]: inactive
C[C@H](NC(=O)OCc1ccccc1)C(=O)N[C@@H](C)C(=O)N1CCC[C@H]1C(=O)NN(C)C(=O)Oc1ccc([N+](=O)[O-])cc1	1 (≈ 1.71 µM)	–
CCOC(=O)[C@H](C)OC(=O)[C@H](C)OC(=O)[C@@H]1CCCN1C(=O)[C@H](C)NC(=O)[C@@H]1CCCN1C(C)=O (Ac-PAP[Lac][Lac]-OEt)	167 (≈ 336 µM)	–
CC(=O)N[C@@H](C)C(=O)N[C@@H](C)C(=O)N1CCC[C@H]1C(=O)NN(C)C(=O)O[C@@H](C)C(=O)Nc1ccccc1	0.4 (≈ 0.771 µM)	Ki (Pancreatic elastase): 4.5 ×10⁻⁷ M
CCOC(=O)[C@H](Cc1ccccc1)NC(=O)[C@H](C)OC(=O)N(C)NC(=O)[C@@H]1CCCN1C(=O)[C@H](C)NC(=O)[C@H](C)NC(C)=O	2 (≈ 3.23 µM)	–
CCOC(=O)[C@H](C)OC(=O)N(C)NC(=O)[C@H](CC(C)C)NC(=O)[C@H](C)NC(=O)[C@H](C)NC(C)=O	9 (≈ 18.5 µM)	–
CCOC(=O)[C@H](C)OC(=O)[C@H](C)NC(=O)[C@@H]1CCCN1C(=O)[C@H](C)NC(=O)[C@H](C)NC(C)=O (Ac-AAPA[Lac]-OEt)	167 (≈ 355 µM)	Activity [6]: Active
CCOC(=O)[C@H](C)OC(=O)[C@H](C)NC(=O)[C@@H]1CCCN1C(=O)[C@H](C)NC(=O)[C@@H]1CCCN1C(C)=O (Ac-PAPA[Lac]-OEt)	–	Activity [6]: Active; inhibition [2]: inactive
